Patent US20240254089A1, “MODULATORS OF MAS-RELATED G-PROTEIN RECEPTOR X4 AND RELATED PRODUCTS AND METHODS” (ESCIENT PHARMACEUTICALS, INC., priority 2020, published 2024)
pIC50: −log10 of the molar value.

Biological target: T1, human MRGPR X4 (Homo sapiens, UniProt Q96LA9)
T1 construct: expressed in transfected cells
Assay: MRGPR X4 antagonist activity, IP-One Gq HTRF assay in stably transfected HEK cells
Format: cell-based
Conditions: not given
Outline: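 IC50 comes from HTRF IP-1 accumulation in stably transfected HEK cells expressing human MRGPR X4. Compounds (10 uM top, 1:3 serial, 10 points) were co-incubated with 10 μM bilirubin, 20 μM deoxycholic acid or 100 μM conjugated bilirubin in LiCl-containing buffer, pH 8, for 1 h at 37 °C plus 30 min at room temperature.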

T1 sequence (Q96LA9 whole entry): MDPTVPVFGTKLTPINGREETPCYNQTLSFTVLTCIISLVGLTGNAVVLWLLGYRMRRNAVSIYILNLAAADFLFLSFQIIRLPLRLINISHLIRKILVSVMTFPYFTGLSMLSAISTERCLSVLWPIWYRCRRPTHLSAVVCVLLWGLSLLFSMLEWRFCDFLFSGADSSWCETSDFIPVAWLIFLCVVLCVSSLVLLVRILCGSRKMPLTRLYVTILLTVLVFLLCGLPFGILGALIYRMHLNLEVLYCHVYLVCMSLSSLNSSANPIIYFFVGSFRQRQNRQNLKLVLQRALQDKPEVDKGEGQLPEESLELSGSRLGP

| SMILES | pIC50 |
| --- | --- |
| Cc1ccccc1S(=O)(=O)NC(=O)c1nn(Cc2ccc(Cl)cc2)c2ccccc12 [Compound 287] | 5.60 to 6.00 |
| O=C(O)c1nn(Cc2ccc(C(F)(F)F)cc2Cl)c2ccccc12 [Compound 317] | 6.00 to 6.30 |
| O=C(O)c1nn(Cc2ccc(Cl)c(Cl)c2)c2ccccc12 [Compound 318] | 5.60 to 6.00 |
| O=C(O)c1nn(Cc2ccc(Cl)cc2)c2ccccc12 [Compound 319] | 5.60 to 6.00 |
| O=C(O)c1nn(Cc2ccc(Cl)cc2)c2ccc(Cl)cc12 [Compound 320] | 5.60 to 6.00 |
| O=C(O)c1nn(Cc2ccc(OC(F)(F)F)cc2)c2ccccc12 [Compound 321] | 5.60 to 6.00 |
| O=C(O)c1nn(Cc2ccc(Cl)cc2)c2ccc(F)cc12 [Compound 322] | 5.60 to 6.00 |
| CC(C)c1ccc(Cn2nc(C(=O)O)c3ccccc32)cc1 [Compound 323] | 5.60 to 6.00 |
| O=C(O)c1nn(Cc2ccc(OC(F)F)cc2)c2ccccc12 [Compound 325] | < 5.60 |
| O=C(O)c1nn(Cc2ccc(Cl)cc2)c2cc(F)ccc12 [Compound 326] | < 5.60 |
| O=C(O)c1nn(Cc2ccc(Cl)cc2)c2cccc(F)c12 [Compound 327] | < 5.60 |
| O=C(O)c1nn(Cc2cccc(OC(F)(F)F)c2)c2ccccc12 [Compound 328] | < 5.60 |
| COc1cc(Cn2nc(C(=O)O)c3ccccc32)ccc1Cl [Compound 329] | < 5.60 |
| Cc1ccc(Cn2nc(C(=O)O)c3cc(Cl)ccc32)cc1 [Compound 330] | < 5.60 |
| O=C(O)c1nn(Cc2ccc(F)cc2)c2ccccc12 [Compound 331] | < 5.60 |
| O=C(O)c1nn(Cc2ccc(C3CCCCC3)cc2)c2ccccc12 [Compound 332] | < 5.60 |
| Cc1ccc(CNC(=O)c2nn(Cc3ccc(Cl)cc3)c3ccccc23)nn1 [Compound 334] | 6.00 to 6.30 |
| COc1cccc(F)c1CNC(=O)c1nn(Cc2ccc(Cl)cc2)c2ccccc12 [Compound 335] | < 5.60 |
| O=C(NCCOc1cccnc1)c1nn(Cc2ccc(Cl)cc2)c2ccccc12 [Compound 336] | 6.30 to 7.00 |
| O=C(NCCc1c[nH]c2ccc(O)cc12)c1nn(Cc2ccc(Cl)cc2)c2ccccc12 [Compound 338] | 6.30 to 7.00 |
| O=C(NCCc1cccc(Cl)c1)c1nn(Cc2ccc(Cl)cc2)c2ccccc12 [Compound 339] | 6.00 to 6.30 |
| Cc1[nH]c2ccccc2c1CCNC(=O)c1nn(Cc2ccc(Cl)cc2)c2ccccc12 [Compound 340] | < 5.60 |
| Cc1cccc2c(CCNC(=O)c3nn(Cc4ccc(Cl)cc4)c4ccccc34)c[nH]c12 [Compound 341] | < 5.60 |
| O=C(NCCc1ccc2c(c1)OCO2)c1nn(Cc2ccc(Cl)cc2)c2ccccc12 [Compound 342] | 6.00 to 6.30 |
| COc1ccc(CCNC(=O)c2nn(Cc3ccc(Cl)cc3)c3ccccc23)cc1OC [Compound 343] | 6.00 to 6.30 |
| O=C(NCCc1ccc(Cl)c(Cl)c1)c1cn(Cc2ccc(Cl)cc2)c2ccccc12 [Compound 344] | < 5.60 |
| O=C(NCCCn1ccnc1)c1nn(Cc2ccc(Cl)cc2)c2ccccc12 [Compound 345] | < 5.60 |
| N=C(N)NCCCCNC(=O)c1nn(Cc2ccc(Cl)cc2)c2ccccc12 [Compound 346] | 5.60 to 6.00 |
| O=C(CNC(=O)c1nn(Cc2ccc(Cl)cc2)c2ccccc12)NCC(F)(F)F [Compound 347] | < 5.60 |

Same assay, conditions: versus 20 μM deoxycholic acid agonist; HEK cells expressing human MRGPR X4; read-out: MRGPRX4 Antagonist Activity

| SMILES | pIC50 |
| --- | --- |
| Cc1nc(S(=O)(=O)NC(=O)c2nn(Cc3ccc(Cl)cc3)c3ccccc23)sc1C [Compound 271] | 5.60 to 6.00 |
| Cc1cccc(S(=O)(=O)NC(=O)c2nn(Cc3ccc(OC(F)(F)F)cc3)c3ccccc23)c1 [Compound 272] | 5.60 to 6.00 |
| Cc1cccc(S(=O)(=O)NC(=O)c2nn(Cc3ccc(C#N)cc3)c3ccccc23)c1 [Compound 273] | 5.60 to 6.00 |
| Cc1cc(F)cc(S(=O)(=O)NC(=O)c2nn(Cc3ccc(OC(F)F)cc3)c3ccccc23)c1 [Compound 274] | 5.60 to 6.00 |
| COc1ccc(S(=O)(=O)NC(=O)c2nn(Cc3ccc(OC(F)F)cc3)c3ccccc23)cc1C [Compound 275] | 5.60 to 6.00 |
| O=C(NS(=O)(=O)c1ccc(C(F)(F)F)cc1)c1nn(Cc2ccc(OC(F)F)cc2)c2ccccc12 [Compound 276] | 5.60 to 6.00 |
| COC(=O)c1ccc(S(=O)(=O)NC(=O)c2nn(Cc3ccc(OC(F)F)cc3)c3ccccc23)cc1 [Compound 277] | 5.60 to 6.00 |
| Cc1cccc(S(=O)(=O)NC(=O)c2nn(Cc3ccc(OC(F)F)cc3)c3ccccc23)c1F [Compound 278] | 5.60 to 6.00 |
| Cc1cccc(S(=O)(=O)NC(=O)c2nn(Cc3ccc(Cl)cc3)c3ccccc23)c1 [Compound 279] | 5.60 to 6.00 |
| N#Cc1ccc(S(=O)(=O)NC(=O)c2nn(Cc3ccc(OC(F)F)cc3)c3ccccc23)cc1 [Compound 280] | 5.60 to 6.00 |
| O=C(NS(=O)(=O)c1cccc(OC(F)(F)F)c1)c1nn(Cc2ccc(OC(F)F)cc2)c2ccccc12 [Compound 281] | 5.60 to 6.00 |
| Cc1cccc(S(=O)(=O)NC(=O)c2nn(Cc3ccc(OC(F)F)cc3)c3ccccc23)c1C [Compound 282] | 5.60 to 6.00 |
| Cc1cccc(S(=O)(=O)NC(=O)c2nn(Cc3ccc(OC(F)F)cc3)c3ccccc23)c1Cl [Compound 283] | 5.60 to 6.00 |
| Cc1ccccc1S(=O)(=O)NC(=O)c1nn(Cc2ccc(C(F)(F)F)cc2Cl)c2ccccc12 [Compound 284] | 5.60 to 6.00 |
| COc1cccc(S(=O)(=O)NC(=O)c2nn(Cc3ccc(OC(F)F)cc3)c3ccccc23)c1 [Compound 285] | 5.60 to 6.00 |
| O=C(NS(=O)(=O)c1ccccc1OC(F)(F)F)c1nn(Cc2ccc(OC(F)F)cc2)c2ccccc12 [Compound 286] | 5.60 to 6.00 |
| Cc1ccccc1CS(=O)(=O)NC(=O)c1nn(Cc2ccc(Cl)cc2)c2ccccc12 [Compound 288] | 5.60 to 6.00 |
| COc1ccc(S(=O)(=O)NC(=O)c2nn(Cc3ccc(OC(F)F)cc3)c3ccccc23)cc1 [Compound 289] | 5.60 to 6.00 |
| Cc1cc(S(=O)(=O)NC(=O)c2nn(Cc3ccc(OC(F)F)cc3)c3ccccc23)ccc1F [Compound 290] | 5.60 to 6.00 |
| O=C(NS(=O)(=O)c1ccccn1)c1nn(Cc2ccc(Cl)cc2)c2ccccc12 [Compound 291] | 5.60 to 6.00 |
| Cc1cccc(S(=O)(=O)NC(=O)c2nn(Cc3ccc(F)cc3)c3ccccc23)c1 [Compound 292] | 5.60 to 6.00 |
| COc1ccc(Cn2nc(C(=O)NS(=O)(=O)c3cccc(C)c3)c3ccccc32)cc1 [Compound 293] | 5.60 to 6.00 |
| O=C(NS(=O)(=O)c1ccc(Cl)cc1Cl)c1nn(Cc2ccc(OC(F)F)cc2)c2ccccc12 [Compound 294] | 5.60 to 6.00 |

| SMILES | pIC50 |
| --- | --- |
| Cc1ccc(S(=O)(=O)NC(=O)c2nn(Cc3ccc(OC(F)F)cc3)c3ccccc23)cc1C [Compound 295] | 5.60 to 6.00 |
| O=C(NS(=O)(=O)c1ccc(OC(F)(F)F)cc1)c1nn(Cc2ccc(OC(F)F)cc2)c2ccccc12 [Compound 296] | < 5.60 |
| Cc1ccc(Cn2nc(C(=O)NS(=O)(=O)c3cccc(C)c3)c3ccccc32)cc1 [Compound 297] | < 5.60 |
| O=C(NS(=O)(=O)Cc1ccccn1)c1nn(Cc2ccc(Cl)cc2)c2ccccc12 [Compound 299] | < 5.60 |
| COc1cccc(CS(=O)(=O)NC(=O)c2nn(Cc3ccc(Cl)cc3)c3ccccc23)c1 [Compound 300] | < 5.60 |
| N#Cc1ccc(S(=O)(=O)NC(=O)c2nn(Cc3cccc(F)c3)c3ccccc23)cc1Cl [Compound 301] | < 5.60 |
| CC(C)c1ccccc1S(=O)(=O)NC(=O)c1nn(Cc2ccc(Cl)cc2)c2ccccc12 [Compound 302] | < 5.60 |
| Cc1cc(S(=O)(=O)NC(=O)c2nn(Cc3ccc(OC(F)F)cc3)c3ccccc23)ccc1Cl [Compound 303] | < 5.60 |
| O=C(NS(=O)(=O)c1cccnc1)c1nn(Cc2ccc(Cl)cc2)c2ccccc12 [Compound 304] | < 5.60 |
| Cc1cccc(S(=O)(=O)NC(=O)c2nn(Cc3ccc(Cl)cc3)c3ccccc23)n1 [Compound 305] | < 5.60 |
| Cc1cccc(S(=O)(=O)NC(=O)c2nn(Cc3ccc(C(F)(F)F)cc3Cl)c3ccccc23)c1 [Compound 306] | < 5.60 |
| Cc1c(Cl)cccc1S(=O)(=O)NC(=O)c1nn(Cc2cccc(F)c2)c2ccccc12 [Compound 307] | < 5.60 |
| O=C(NS(=O)(=O)c1ccc(Cl)cc1Cl)c1nn(Cc2ccc(Cl)cc2)c2ccccc12 [Compound 308] | < 5.60 |
| Cc1ccc(S(=O)(=O)NC(=O)c2nn(Cc3ccc(OC(F)F)cc3)c3ccccc23)cc1 [Compound 309, 1-(4-(difluoromethoxy)benzyl)-N-tosyl-1H-indazole-3-carboxamide] | 5.60 to 6.00 |
| O=C(NS(=O)(=O)Cc1cccnc1)c1nn(Cc2ccc(Cl)cc2)c2ccccc12 [Compound 310] | < 5.60 |
| O=C(O)c1ccc(S(=O)(=O)NC(=O)c2nn(Cc3ccc(OC(F)F)cc3)c3ccccc23)cc1 [Compound 311, 4-(N-(1-(4-(difluoromethoxy)benzyl)-1H-indazole-3-carbonyl)sulfamoyl)benzoic acid] | 5.60 to 6.00 |
| Cc1ccccc1S(=O)(=O)NC(=O)c1cn(Cc2ccc(OC(F)F)cc2)c2ccccc12 [Compound 312, 1-(4-(difluoromethoxy)benzyl)-N-(o-tolylsulfonyl)-1H-indole-3-carboxamide] | 5.60 to 6.00 |
| Cc1cccc(S(=O)(=O)NC(=O)c2cn(Cc3ccc(OC(F)F)cc3)c3ccccc23)c1 [Compound 313] | < 5.60 |
| O=S(=O)(NCCc1ccc(Cl)c(F)c1)c1cn(Cc2ccc(Cl)cc2)c2ccccc12 [Compound 314] | 5.60 to 6.00 |
| O=C(CSc1cn(Cc2ccc(Br)cc2)c2ccccc12)N1CCCC1 [Compound 315, 2-(4(1H-indol-3-yl)thio)-1-(pyrrolidin-1-yl)ethan-1-one] | 5.60 to 6.00 |
| O=C(O)c1nn(Cc2ccc(Cl)cc2Cl)c2ccccc12 [Compound 316, 1-(2,4-dichlorobenzyl)-1H-indazole-3-carboxylic acid] | 5.60 to 6.00 |
| Cc1cc(Cl)ccc1Cn1nc(C(=O)O)c2ccccc21 [Compound 324] | < 5.60 |
| O=C(NCCOCc1ccccc1)c1nn(Cc2ccc(Cl)cc2)c2ccccc12 [Compound 337] | < 5.60 |
